Measured values as given in ChEMBL document CHEMBL2346657, “Synthesis of novel 2-amino-4-(5'-substituted 2'-phenyl-1H-indol-3'-yl)-6-aryl-4H-pyran-3-carbonitrile derivatives as antimicrobial and antioxidant agents” (2013).
The source made the active and inactive calls. No rule for the calls is given here.

What was measured:
Format in all cases: functional
[1] = test system: Aspergillus terreus; assay: Antimicrobial activity against Aspergillus terreus MTCC 1782 at 1000 ug/ml after 72 hrs by cup plate method; conditions: MTCC 1782, 72 h, read-out: IZ
[2] = test system: Escherichia coli; assay: Antimicrobial activity against Escherichia coli MTCC 723 at 750 ug/ml after 24 hrs by cup plate method; conditions: MTCC 723, 24 h, read-out: IZ
[3] = test system: Klebsiella pneumoniae; assay: Antimicrobial activity against Klebsiella pneumoniae NCTC 13368 at 750 ug/ml after 24 hrs by cup plate method; conditions: NCTC 13368, 24 h, read-out: IZ
[4] = test system: Aspergillus flavus; assay: Antimicrobial activity against Aspergillus flavus MTCC 1973 at 750 ug/ml after 72 hrs by cup plate method; conditions: MTCC 1973, 72 h, read-out: IZ
[5] = test system: Aspergillus oryzae; assay: Antimicrobial activity against Aspergillus oryzae MTCC 3567 at 1000 ug/ml after 72 hrs by cup plate method; conditions: MTCC 3567, 72 h, read-out: IZ
[6] = test system: Aspergillus oryzae; assay: Antimicrobial activity against Aspergillus oryzae MTCC 3567 at 750 ug/ml after 72 hrs by cup plate method; conditions: MTCC 3567, 72 h, read-out: IZ
[7] = test system: Aspergillus oryzae; assay: Antimicrobial activity against Aspergillus oryzae MTCC 3567 at 500 ug/ml after 72 hrs by cup plate method; conditions: MTCC 3567, 72 h, read-out: IZ
[8] = test system: Klebsiella pneumoniae; assay: Antimicrobial activity against Klebsiella pneumoniae NCTC 13368 at 500 ug/ml after 24 hrs by cup plate method; conditions: NCTC 13368, 24 h, read-out: IZ
[9] = test system: Pseudomonas aeruginosa; assay: Antimicrobial activity against Pseudomonas aeruginosa MTCC 1688 at 750 ug/ml after 24 hrs by cup plate method; conditions: MTCC 1688, 24 h, read-out: IZ
[10] = test system: Pseudomonas aeruginosa; assay: Antimicrobial activity against Pseudomonas aeruginosa MTCC 1688 at 1000 ug/ml after 24 hrs by cup plate method; conditions: MTCC 1688, 24 h, read-out: IZ
[11] = test system: Aspergillus terreus; assay: Antimicrobial activity against Aspergillus terreus MTCC 1782 at 750 ug/ml after 72 hrs by cup plate method; conditions: MTCC 1782, 72 h, read-out: IZ
[12] = test system: Staphylococcus aureus; assay: Antimicrobial activity against Staphylococcus aureus ATCC 29513 at 750 ug/ml after 24 hrs by cup plate method; conditions: ATCC 29513, 24 h, read-out: IZ
[13] = test system: Klebsiella pneumoniae; assay: Antimicrobial activity against Klebsiella pneumoniae NCTC 13368 at 1000 ug/ml after 24 hrs by cup plate method; conditions: NCTC 13368, 24 h, read-out: IZ
[14] = test system: Escherichia coli; assay: Antimicrobial activity against Escherichia coli MTCC 723 at 500 ug/ml after 24 hrs by cup plate method; conditions: MTCC 723, 24 h, read-out: IZ
[15] = test system: Staphylococcus aureus; assay: Antimicrobial activity against Staphylococcus aureus ATCC 29513 at 1000 ug/ml after 24 hrs by cup plate method; conditions: ATCC 29513, 24 h, read-out: IZ
[16] = test system: Staphylococcus aureus; assay: Antimicrobial activity against Staphylococcus aureus ATCC 29513 at 500 ug/ml after 24 hrs by cup plate method; conditions: ATCC 29513, 24 h, read-out: IZ
[17] = test system: Escherichia coli; assay: Antimicrobial activity against Escherichia coli MTCC 723 at 1000 ug/ml after 24 hrs by cup plate method; conditions: MTCC 723, 24 h, read-out: IZ
[18] = test system: Aspergillus terreus; assay: Antimicrobial activity against Aspergillus terreus MTCC 1782 at 500 ug/ml after 72 hrs by cup plate method; conditions: MTCC 1782, 72 h, read-out: IZ
[19] = test system: Aspergillus niger; assay: Antimicrobial activity against Aspergillus niger MTCC 281 at 1000 ug/ml after 72 hrs by cup plate method; conditions: MTCC 281, 72 h, read-out: IZ
[20] = test system: Pseudomonas aeruginosa; assay: Antimicrobial activity against Pseudomonas aeruginosa MTCC 1688 at 500 ug/ml after 24 hrs by cup plate method; conditions: MTCC 1688, 24 h, read-out: IZ
[21] = test system: Aspergillus niger; assay: Antimicrobial activity against Aspergillus niger MTCC 281 at 500 ug/ml after 72 hrs by cup plate method; conditions: MTCC 281, 72 h, read-out: IZ
[22] = Antioxidant activity assessed as metal chelating activity by measuring inhibition of ferrozine-Fe2+ complex formation at 25 to 100 ug/ml
[23] = test system: Aspergillus flavus; assay: Antimicrobial activity against Aspergillus flavus MTCC 1973 at 500 ug/ml after 72 hrs by cup plate method; conditions: MTCC 1973, 72 h, read-out: IZ
[24] = test system: Aspergillus flavus; assay: Antimicrobial activity against Aspergillus flavus MTCC 1973 at 1000 ug/ml after 72 hrs by cup plate method; conditions: MTCC 1973, 72 h, read-out: IZ
[25] = test system: Aspergillus niger; assay: Antimicrobial activity against Aspergillus niger MTCC 281 at 750 ug/ml after 72 hrs by cup plate method; conditions: MTCC 281, 72 h, read-out: IZ

Row | SMILES | zone of inhibition at 1000 µg/mL [1] [mm] | zone of inhibition at 750 µg/mL [2] [mm] | zone of inhibition at 750 µg/mL [3] [mm] | zone of inhibition at 750 µg/mL [4] [mm] | zone of inhibition at 1000 µg/mL [5] [mm] | zone of inhibition at 750 µg/mL [6] [mm] | zone of inhibition at 500 µg/mL [7] [mm] | zone of inhibition at 500 µg/mL [8] [mm] | zone of inhibition at 750 µg/mL [9] [mm] | zone of inhibition at 1000 µg/mL [10] [mm] | zone of inhibition at 750 µg/mL [11] [mm] | zone of inhibition at 750 µg/mL [12] [mm] | zone of inhibition at 1000 µg/mL [13] [mm] | zone of inhibition at 500 µg/mL [14] [mm] | zone of inhibition at 1000 µg/mL [15] [mm] | zone of inhibition at 500 µg/mL [16] [mm] | zone of inhibition at 1000 µg/mL [17] [mm] | zone of inhibition at 500 µg/mL [18] [mm] | zone of inhibition at 1000 µg/mL [19] [mm] | zone of inhibition at 500 µg/mL [20] [mm] | further results
1 | N#CC1=C(N)OC(c2ccccc2)=CC1c1c(-c2ccccc2)[nH]c2ccc(Cl)cc12 (stereo not given) | 8 | 10 | 10 | 3 | 3 | 3 | 8 | 10 | 12 | 13 | 8 | 9 | 10 | 10 | 9 | 10 | 10 | 9 | 10 | 12 | zone of inhibition at 500 µg/mL [21]: 8 mm; Activity [22]: Active; zone of inhibition at 500 µg/mL [23]: 3 mm; zone of inhibition at 1000 µg/mL [24]: 3 mm; zone of inhibition at 750 µg/mL [25]: 9 mm
2 | Nc1nc(=S)[nH]c2c1C(c1c(-c3ccccc3)[nH]c3ccccc13)C=C(c1ccccc1)O2 (stereo not given) | 5 | 10 | 8 | 9 | 8 | 8 | 9 | 9 | 2 | 2 | 5 | 2 | 8 | 10 | 0 | 2 | 11 | 5 | 14 | 2 | zone of inhibition at 500 µg/mL [21]: 12 mm; Activity [22]: Active; zone of inhibition at 500 µg/mL [23]: 9 mm; zone of inhibition at 1000 µg/mL [24]: 9 mm; zone of inhibition at 750 µg/mL [25]: 12 mm
3 | Cc1ccc(C2=CC(c3c(-c4ccccc4)[nH]c4ccccc34)c3c(N)nc(=S)[nH]c3O2)cc1 (stereo not given) | 4 | 8 | 9 | 3 | 9 | 9 | 10 | 9 | 5 | 3 | 4 | 4 | 3 | 9 | 4 | 6 | 3 | 6 | 2 | 5 | zone of inhibition at 500 µg/mL [21]: 6 mm; Activity [22]: Active; zone of inhibition at 500 µg/mL [23]: 3 mm; zone of inhibition at 1000 µg/mL [24]: 3 mm; zone of inhibition at 750 µg/mL [25]: 5 mm
